Source: patent US9452196B2, “Pharmaceutical composition for treating medical conditions and a method for treating alimentary disorders and related diseases” (SOCIEDADE BENEFICENTE DE SENHORAS HOSPITAL SIRIO LIBANES, priority 2009, dated 2016)
Like-named read-outs stand apart in the source and are kept apart here.

What was measured:
CB1 receptor [1] = target: T1, CB1 receptor (Homo sapiens, UniProt P21554); type: biochemical; conditions: for percentage of activity as compared to the control group: CB1
From the text: (§1) Next the selectivity of hemopressin for CB1 receptors was examined using antibodies sensitive to the conformations of mu and delta opiod receptors, alpha-2A and beta-2 adrenergic receptors, as well as type 1 and 2 Angiotensin II receptors.

2A neural cells = assay: growth of neurites in 2A neural cells; type: cell-based; conditions: FIG. 3D; for basal growth of neurites: substance alone
CB1 receptor [2] = target: T1, CB1 receptor; conditions: in vitro, Dodd et al.; cited from earlier work
rats and mice = conditions: Dodd et al., cited from earlier work
male Wistar rats = assay: fat content and body weight in male Wistar rats on 63-day diet; type: in vivo, rat; conditions: once a day for three days; for Body Weight (% of Control) / Periepididymal Adipose Tissue Weight / Retroperitoneal Adipose Tissue Weight / Visceral Adipose Tissue Weight: 63-day ad libitum diet
CB1 receptor [3] = target: T1, CB1 receptor; assay: displacement of the ligand rimonabant from CB1 receptors; type: binding; conditions: FIG. 2A
rats [4] = assay: body weight and fat content after oral administration; type: in vivo, rat; conditions: for Body Weight (% of Control) / Periepididymal Adipose Tissue Weight / Retroperitoneal Adipose Tissue Weight / Visceral Adipose Tissue Weight: rats
rats [5] = assay: standard swimming test for depression; type: in vivo, rat; conditions: hemopressin 1 mg/Kg, FIG. 5
[6] = cited from earlier work
mu opioid receptor = mu opioid receptor (Homo sapiens, UniProt P35372); assay: recognition by conformation-sensitive receptor antibody; type: biochemical
From the text: as §1, with “receptors. In the following table, it is possible to identify the specificity of the peptide hemopressin for the CB1 receptor. […] The following data presents the percentage of activity as compared to the control group: […]” for “receptors.”

[7] = target: beta-2 adrenergic receptor (Homo sapiens, UniProt P07550); assay: as above; type: biochemical
From the text: as §1, with “receptors. In the following table, it is possible to identify the specificity of the peptide hemopressin for the CB1 receptor. […] The following data presents the percentage of activity as compared to the control group: […]” for “receptors.”

[8] = target: T2, alpha-2A adrenergic receptor (Homo sapiens, UniProt P08913); assay: as above; type: biochemical
T2 sequence (P08913 1-465): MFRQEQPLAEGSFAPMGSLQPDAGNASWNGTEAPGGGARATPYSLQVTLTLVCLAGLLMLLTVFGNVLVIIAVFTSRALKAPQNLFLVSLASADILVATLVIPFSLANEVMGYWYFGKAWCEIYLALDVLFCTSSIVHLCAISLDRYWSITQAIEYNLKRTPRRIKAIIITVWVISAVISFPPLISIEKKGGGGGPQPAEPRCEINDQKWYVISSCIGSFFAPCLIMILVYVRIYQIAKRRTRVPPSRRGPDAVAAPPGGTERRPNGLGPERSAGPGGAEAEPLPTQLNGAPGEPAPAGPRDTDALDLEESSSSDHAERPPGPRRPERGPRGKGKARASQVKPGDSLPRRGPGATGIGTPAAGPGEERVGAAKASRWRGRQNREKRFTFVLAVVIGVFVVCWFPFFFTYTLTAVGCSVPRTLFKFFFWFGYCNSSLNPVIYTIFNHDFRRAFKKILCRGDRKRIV
From the text: as §1, with “receptors. In the following table, it is possible to identify the specificity of the peptide hemopressin for the CB1 receptor. […] The following data presents the percentage of activity as compared to the control group: […]” for “receptors.”

[9] = target: T3, type 1 Angiotensin II receptor (AT1) (Homo sapiens, UniProt P30556); assay: as above; type: biochemical
T3 sequence (P30556 1-359): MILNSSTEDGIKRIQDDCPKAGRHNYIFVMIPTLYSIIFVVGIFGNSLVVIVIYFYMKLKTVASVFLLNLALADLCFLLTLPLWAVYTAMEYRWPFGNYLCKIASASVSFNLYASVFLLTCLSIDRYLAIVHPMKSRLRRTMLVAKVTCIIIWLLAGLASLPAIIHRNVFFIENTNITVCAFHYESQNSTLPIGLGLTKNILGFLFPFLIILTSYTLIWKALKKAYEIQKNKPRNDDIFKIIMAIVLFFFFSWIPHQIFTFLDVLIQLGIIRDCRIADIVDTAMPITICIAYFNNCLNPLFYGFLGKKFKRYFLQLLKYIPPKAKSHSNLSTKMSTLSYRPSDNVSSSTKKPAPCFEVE
From the text: as §1, with “receptors. In the following table, it is possible to identify the specificity of the peptide hemopressin for the CB1 receptor. […] The following data presents the percentage of activity as compared to the control group: […]” for “receptors.”

[10] = target: T4, type 2 Angiotensin II receptor (AT2) (Homo sapiens, UniProt P50052); assay: as above; type: biochemical
T4 sequence (P50052 1-363): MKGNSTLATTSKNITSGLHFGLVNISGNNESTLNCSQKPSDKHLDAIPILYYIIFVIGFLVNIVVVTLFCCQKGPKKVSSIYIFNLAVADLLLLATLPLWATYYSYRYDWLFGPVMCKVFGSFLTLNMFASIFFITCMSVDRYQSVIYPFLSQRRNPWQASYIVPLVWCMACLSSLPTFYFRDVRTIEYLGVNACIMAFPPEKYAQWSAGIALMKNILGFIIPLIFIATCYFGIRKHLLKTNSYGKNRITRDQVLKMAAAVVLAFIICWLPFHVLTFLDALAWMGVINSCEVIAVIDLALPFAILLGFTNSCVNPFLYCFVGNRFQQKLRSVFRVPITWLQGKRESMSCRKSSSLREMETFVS
From the text: as §1, with “receptors. In the following table, it is possible to identify the specificity of the peptide hemopressin for the CB1 receptor. […] The following data presents the percentage of activity as compared to the control group: […]” for “receptors.”

delta opioid receptor = delta opioid receptor (Homo sapiens, UniProt P41143); assay: as above; type: biochemical
From the text: as §1, with “receptors. In the following table, it is possible to identify the specificity of the peptide hemopressin for the CB1 receptor. […] The following data presents the percentage of activity as compared to the control group: […]” for “receptors.”

CB1 receptor [11] = target: T1, CB1 receptor; conditions: literature; cited from earlier work
diet induced obese rats = assay: insulin sensitivity in diet induced obese rats; type: in vivo, rat; conditions: 50 micrograms/Kg and 1 mg/Kg hemopressin, FIG. 6
CB1 receptor [12] = target: T1, CB1 receptor; type: biochemical
Procedure: A test was then designed, the results of which are illustrated in FIG. 2B, to determine if hemopressin could block the signaling of CB1 receptor. […] Finally, a test was designed to measure whether hemopressin is capable of blocking the increase of levels of phosphorylated ERK1 and ERK2.
Hemopressin was also determined to not only act as an antagonist but as an inverse agonist of CB1 receptors. This was further explored by studying the binding of GTPgammaS, adenylate cyclase activity and MAP kinase phopshorylation. […] This can clearly be seen in FIGS. 3A-C.

rodents and humans = conditions: literature; cited from earlier work
male Zucker rats = assay: fat content in male Zucker rats after intraperitoneal administration; type: in vivo, rat; conditions: intraperitoneal 50 micrograms/Kg once a day for three days
Procedure: Experiments were also conducted on genetically obese and diet-induced rats of another species. Male Zucker rats were maintained on a 12 hour light/dark cycle. The rats were divided into two groups that receive once a day for three days either intraperiotoneal administration of 50 micrograms/Kg body weight of HPW2 or saline.

T1 sequence (P21554 whole entry): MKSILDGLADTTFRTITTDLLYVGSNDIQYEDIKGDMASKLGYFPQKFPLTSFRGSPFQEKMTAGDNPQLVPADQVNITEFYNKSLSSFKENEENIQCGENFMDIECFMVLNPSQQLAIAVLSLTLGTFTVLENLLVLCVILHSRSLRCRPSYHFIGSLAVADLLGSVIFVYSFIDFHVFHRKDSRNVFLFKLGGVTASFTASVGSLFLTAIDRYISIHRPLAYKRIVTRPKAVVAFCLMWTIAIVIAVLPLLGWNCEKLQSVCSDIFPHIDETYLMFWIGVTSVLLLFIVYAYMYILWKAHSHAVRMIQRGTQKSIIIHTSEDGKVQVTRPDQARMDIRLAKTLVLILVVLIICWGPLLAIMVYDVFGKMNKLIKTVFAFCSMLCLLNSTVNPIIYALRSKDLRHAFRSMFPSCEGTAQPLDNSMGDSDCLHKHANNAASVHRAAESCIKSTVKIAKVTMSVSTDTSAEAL
beta-2 adrenergic receptor, sequence (P07550 whole entry): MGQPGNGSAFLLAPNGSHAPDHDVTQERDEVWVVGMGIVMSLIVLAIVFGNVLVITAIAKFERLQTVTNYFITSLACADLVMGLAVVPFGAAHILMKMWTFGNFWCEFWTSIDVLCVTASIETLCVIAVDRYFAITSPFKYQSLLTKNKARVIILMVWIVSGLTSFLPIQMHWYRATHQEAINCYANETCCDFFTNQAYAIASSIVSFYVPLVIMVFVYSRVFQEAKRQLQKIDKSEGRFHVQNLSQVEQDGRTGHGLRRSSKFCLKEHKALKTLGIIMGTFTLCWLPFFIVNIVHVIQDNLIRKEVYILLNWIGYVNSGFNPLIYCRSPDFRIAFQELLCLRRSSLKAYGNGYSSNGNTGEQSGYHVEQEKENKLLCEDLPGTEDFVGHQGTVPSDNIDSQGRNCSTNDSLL
mu opioid receptor, sequence (P35372 whole entry): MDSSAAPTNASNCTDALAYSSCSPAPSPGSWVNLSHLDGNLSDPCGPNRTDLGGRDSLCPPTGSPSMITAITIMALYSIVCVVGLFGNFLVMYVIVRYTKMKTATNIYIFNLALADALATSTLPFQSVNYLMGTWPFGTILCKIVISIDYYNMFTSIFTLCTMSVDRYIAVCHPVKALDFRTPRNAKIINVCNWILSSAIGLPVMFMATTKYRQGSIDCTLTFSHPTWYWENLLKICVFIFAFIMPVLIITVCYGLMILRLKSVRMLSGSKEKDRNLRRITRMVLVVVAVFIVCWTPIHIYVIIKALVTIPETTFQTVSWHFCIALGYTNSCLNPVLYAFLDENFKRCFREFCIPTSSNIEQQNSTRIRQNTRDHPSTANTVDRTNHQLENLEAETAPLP
delta opioid receptor, sequence (P41143 whole entry): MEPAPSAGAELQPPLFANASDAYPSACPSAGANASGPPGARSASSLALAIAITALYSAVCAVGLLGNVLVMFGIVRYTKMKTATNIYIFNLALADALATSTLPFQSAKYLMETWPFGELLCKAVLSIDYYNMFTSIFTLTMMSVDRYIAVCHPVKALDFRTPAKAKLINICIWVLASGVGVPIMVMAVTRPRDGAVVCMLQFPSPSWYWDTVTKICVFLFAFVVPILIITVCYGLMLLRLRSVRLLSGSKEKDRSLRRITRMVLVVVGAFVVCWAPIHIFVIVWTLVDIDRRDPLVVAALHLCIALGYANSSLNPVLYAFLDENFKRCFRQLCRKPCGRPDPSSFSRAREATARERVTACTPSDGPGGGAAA

CCCCCCC(C)(C)c1cc(O)c2c(c1)OC(C)(C)[C@@H]1CC=C(CO)C[C@@H]21 [HU-210, reference compound]
recognition of a CB1 specific antibody (CB1 receptor [1]): increase | basal growth of neurites (2A neural cells): induction of the growth of neurites

CC(C)C[C@H](NC(=O)[C@H](Cc1ccccc1)NC(=O)[C@H](CCCCN)NC(=O)[C@H](Cc1ccccc1)NC(=O)[C@H](CC(N)=O)NC(=O)[C@@H](NC(=O)C1CCCN1)C(C)C)C(=O)N[C@@H](CO)C(=O)N[C@@H](Cc1cnc[nH]1)C(=O)O (stereo partly drawn) [hemopressin]
CB1 agonist-induced internalization of the CB1 receptor (CB1 receptor [2]): antagonize CB1 agonist-induced internalization of the CB1 receptor in vitro | block of the HU-210 induced increase in the recognition of the antibody (CB1 receptor [1]): significantly blocked | percentage of activity as compared to the control group (CB1 receptor [1]; agonist and HP together): 102.06 ± 5.91% | percentage of activity as compared to the control group (CB1 receptor [1]; hemopressin alone): 72.30 ± 3.32% | recognition of a CB1 specific antibody (CB1 receptor [1]; substance alone, FIG. 1A/1B): decrease the recognition of a CB1 specific antibody | selectivity for CB1 receptors (CB1 receptor [1]; versus mu and delta opioid, alpha-2A, beta-2, AT1, AT2 receptors): highly selective for CB1 receptors | food intake (rats and mice; administered centrally): induce hypophagia in vivo when administered centrally | food intake (rats and mice; administered systemically): induce hypophagia in vivo when administered systemically | Body Weight (% of Control) (male Wistar rats): 98.62 ± 13.33 % of Control | Periepididymal Adipose Tissue Weight (male Wistar rats): 4.77 ± 1.06 g | Retroperitoneal Adipose Tissue Weight (male Wistar rats): 6.12 ± 2.09 g | Visceral Adipose Tissue Weight (male Wistar rats): 2.77 ± 0.58 g | periepididymal and visceral fat content compared to saline control (male Wistar rats): significantly reduced periepididymal and visceral fat content | displacement of rimonabant from CB1 receptors (CB1 receptor [3]): capable of displacing rimonabant from CB1 receptors | growth of neurites as measured against agonists (2A neural cells): efficiently blocks the growth of neurites | basal growth of neurites (2A neural cells): capable of decreasing the basal growth of neurites | retroperitoneal fat content (rats [4]): significantly reduced by hemopressin only | total body weight and periepididymal fat content (rats [4]): significantly reduce | Body Weight (% of Control) (rats [4]): 96.89 ± 1.25 % of Control | Periepididymal Adipose Tissue Weight (rats [4]): 7.16 ± 1.36 g | Retroperitoneal Adipose Tissue Weight (rats [4]): 6.26 ± 1.62 g | Visceral Adipose Tissue Weight (rats [4]): 4.31 ± 0.61 g | symptoms of depression in standard swimming test (rats [5]): showed no such symptoms | antinociceptive effects ([6]; Dale et al., literature): nonopioid antinociceptive effects | treatment of hyperalgesia ([6]; administered locally or systemically, Heimann et al.): effective in treating hyperalgesia | percentage of activity as compared to the control group (mu opioid receptor; agonist and HP together): 141.09 ± 6.46% | percentage of activity as compared to the control group (mu opioid receptor; hemopressin alone): 105.62 ± 1.09% | percentage of activity as compared to the control group ([7]; agonist and HP together): 157.40 ± 8.15% | percentage of activity as compared to the control group ([7]; hemopressin alone): 103.85 ± 9.29% | percentage of activity as compared to the control group ([8]; agonist and HP together): 130.05 ± 7.06% | percentage of activity as compared to the control group ([8]; hemopressin alone): 102.72 ± 2.00% | percentage of activity as compared to the control group ([9]; agonist and HP together): 140.01 ± 1.21% | percentage of activity as compared to the control group ([9]; hemopressin alone): 109.65 ± 1.31% | percentage of activity as compared to the control group ([10]; agonist and HP together): 137.10 ± 1.91% | percentage of activity as compared to the control group ([10]; hemopressin alone): 99.65 ± 4.71% | percentage of activity as compared to the control group (delta opioid receptor; agonist and HP together): 131.08 ± 3.35% | percentage of activity as compared to the control group (delta opioid receptor; hemopressin alone): 100.65 ± 4.29% | action at the CB1 receptor (CB1 receptor [11]): CB1 receptor inverse agonist | insulin sensitivity (diet induced obese rats): significantly improved insulin sensitivity | block of the increase of GTPgammaS (CB1 receptor [12]): capable of blocking the increase of GTPgammaS | block of the increase of levels of phosphorylated ERK1 and ERK2 (CB1 receptor [12]): behave similarly to rimonabant | block of decreases in cAMP levels (CB1 receptor [12]; against agonists, FIG. 2C): block decreases in cAMP levels with efficiency similar to that of rimonabant | basal signaling, binding of GTPgammaS (CB1 receptor [12]; without agonist, FIG. 3A): causes decreases in signaling below the basal levels | basal signaling, adenylate cyclase activity (CB1 receptor [12]; without agonist, FIG. 3B): causes decreases in signaling below the basal levels | basal signaling, MAP kinase phosphorylation (CB1 receptor [12]; without agonist, FIG. 3C): causes decreases in signaling below the basal levels

Cc1c(C(=O)NN2CCCCC2)nn(-c2ccc(Cl)cc2Cl)c1-c1ccc(Cl)cc1 [rimonabant, reference compound]
growth of neurites as measured against agonists (2A neural cells): efficiently blocks the growth of neurites | Body Weight (% of Control) (rats [4]): 98.92 ± 0.95 % of Control | Periepididymal Adipose Tissue Weight (rats [4]): 5.57 ± 1.03 g | Retroperitoneal Adipose Tissue Weight (rats [4]): 6.89 ± 1.31 g | Visceral Adipose Tissue Weight (rats [4]): 3.91 ± 0.78 g | symptoms of depression in standard swimming test (rats [5]): caused the expected depression | insulin sensitivity (diet induced obese rats): did not produce similar results | weight reduction (rodents and humans): weight-reducing effects over extended periods

PVNFKWLSH [HPW2]
Body Weight (% of Control) (male Wistar rats): 95.47 ± 15.44 % of Control | Periepididymal Adipose Tissue Weight (male Wistar rats): 4.01 ± 0.33 g | Retroperitoneal Adipose Tissue Weight (male Wistar rats): 5.37 ± 1.11 g | Visceral Adipose Tissue Weight (male Wistar rats): 2.63 ± 0.94 g | periepididymal and visceral fat content compared to saline control (male Wistar rats): significantly reduced periepididymal and visceral fat content | total body weight and periepididymal fat content (rats [4]): significantly reduce | Body Weight (% of Control) (rats [4]): 96.71 ± 2.03 % of Control | Periepididymal Adipose Tissue Weight (rats [4]): 7.32 ± 1.22 g | Retroperitoneal Adipose Tissue Weight (rats [4]): 7.19 ± 1.50 g | Visceral Adipose Tissue Weight (rats [4]): 4.28 ± 0.59 g | retroperitoneal fat content (male Zucker rats): significant reduction in retroperitoneal fat content | insulin sensitivity (diet induced obese rats): significantly improved insulin sensitivity

VDPENFRLLGNM (listed as Rattus sp.) [non-cannabinoid peptide, reference compound]
fat content (rats [4]): no effect | Body Weight (% of Control) (rats [4]): 100.65 ± 8.07 % of Control | Periepididymal Adipose Tissue Weight (rats [4]): 9.38 ± 0.95 g | Retroperitoneal Adipose Tissue Weight (rats [4]): 8.80 ± 1.15 g | Visceral Adipose Tissue Weight (rats [4]): 4.81 ± 1.25 g
